Measured values published in EP1226809B1, “SKIN TEXTURE-IMPROVING AGENTS” (KYOWA HAKKO KOGYO CO., LTD., priority 1999, dated 2001).
Read-outs that look alike come from different tables or passages of the source.

What was measured:
[1] = test system: Human neonate-derived fibroblasts; assay: Measurement of collagen synthesis-promoting activity on human fibroblasts (3H-glycine incorporation); format: cell-based; details: 300 µmol/l
Procedure: 201-271, Kodansha Scientific (1986).
Human neonate-derived fibroblasts (Sanko Junyaku Co., Ltd.) were suspended in DMEM containing 10% fetal bovine serum [Virology, 8, 396 (1959)] and cultured at 37°C in 5% CO2 to the stationary phase. To the resulting culture were added ^3H-labeled glycine and a test substance, followed by further culturing for 72 hours. After 500 µmol/l phenylmethanesulfonyl fluoride (PMSF) was added to the obtained culture, the cells and the medium were collected, followed by disruption with a sonicator to extract proteins. To the extract were added 100 µmol/l bovine serum albumin (BSA) and 10% trichloroacetic acid (TCA), and the resulting mixture was centrifuged at 3000 rpm for 5 minutes to collect the precipitate. […]
After the reaction mixture was separated by ultrafiltration (molecular weight: 10,000), the radioactivity of the protein fraction in the filtrate (CDP) was measured as the amount of newly synthesized collagen. Then, the radioactivity of the protein fraction which was not filtered (NCDP) was measured, and the collagen synthesis ratio was calculated according to equation 2. The relative collagen synthesis-promoting activity (the change in collagen synthesis) was calculated according to equation 3 as the relative value of the collagen synthesis ratio in the presence of a test substance based on the control. […]

[2] = test system: collagenase I (MMP-1); details: 37°C, 4 hours
Procedure: Measurement of collagenase-inhibiting activity was carried out in the following manner according to the method described in Development and Application of Simple Microassay for Collagenase Activity; Nagai, et al., Inflammation, Vol. 4, p. 123-130, Nihon Igakukan (1984).
To 25 µl of a neutralization buffer (0.1 mol/l Tris hydrochloride, pH 7.5, 0.4 mol/l NaCl, 10 mmol/l CaCl2 and 0.04% NaN3) was added 25 µl of fluorescein isothiocyanate (FITC)-labeled collagen I (Cosmo Bio Co.) To the resulting mixture were further added 50 µl of collagenase I (MMP-1) (Cosmo Bio Co.) and a test sample dissolved in 10 µl of the neutralization buffer, followed by reaction at 37°C for 4 hours. To the reaction mixture was added 5 µl of a reaction terminating solution [80 mmol/l o-phenanthroline/50% (v/v) aqueous ethanol] to stop the reaction. To the resulting mixture was added 100 µl of a twice diluted neutralization buffer and the resulting mixture was allowed to stand at 35°C for 60 minutes. After cooling on ice for 5 minutes, 200 µl of 70% (v/v) aqueous ethanol was added to the mixture, followed by vigorous stirring for 5 minutes. The resulting mixture was centrifuged at 15,000 rpm at 4°C for 10 minutes to obtain the supernatant. By using a spectrophotofluorometer, the supernatant was irradiated with excitation light at 495 nm and emission light at 520 nm (A) was measured to determine the amount of decomposed collagen. The collagenase-inhibiting activity was calculated according to equation 4 by using data (B) obtained when purified water was employed in place of collagenase I and data (C) obtained when a neutralization buffer was employed in place of the test sample. Collagenase-inhibiting activity(%) = [(A)-(B)]/[(C)-(B)] × 100 [formula]

Oc1cc(O)c2c(c1)O[C@H](c1ccc(O)c(O)c1)[C@H](O)[C@H]2c1c(O)cc(O)c2c1O[C@H](c1ccc(O)c(O)c1)[C@H](O)C2 [PB2, epicatechin-(4β→8)-epicatechin]
Relative collagen synthesis-promoting activity (%) ([1]; after 72 hours of culturing, control = 100): 120.8% | amount of collagen synthesized ([1]; result in words, compared with control (=100%)): increased | Collagenase-inhibiting activity (%) ([2]; 100 µmol/l): 69.4% | Collagenase-inhibiting activity (%) ([2]; 1 mmol/l): 100%

Oc1cc(O)c2c(c1)O[C@H](c1ccc(O)c(O)c1)[C@H](O)[C@H]2c1c(O)cc(O)c2c1O[C@H](c1ccc(O)c(O)c1)[C@H](O)[C@H]2c1c(O)cc(O)c2c1O[C@H](c1ccc(O)c(O)c1)[C@H](O)C2 [PC1, epicatechin-(4β→ 8)-epicatechin-(4β→8)-epicatechin]
Collagenase-inhibiting activity (%) ([2]; 1 µmol/l): 17% | Collagenase-inhibiting activity (%) ([2]; 10 µmol/l): 37% | Collagenase-inhibiting activity (%) ([2]; 100 µmol/l): 100%
